In ChEMBL document CHEMBL2216752, “Carnitine palmitoyltransferase (CPT) modulators: a medicinal chemistry perspective on 35 years of research” (J Med Chem, 2011):

How the values were obtained:
Mus musculus [1] = test: Reduction in FBG in db/db mouse at 19 umol/kg/day, po for 4 days measured 1 hr post dose after 16 hrs fasting; assay type: functional; design: scale not given: the % may be the effect or the level left
Mus musculus [2] = test: Reduction in glucose AUC in db/db mouse at 19 umol/kg/day, po for 4 days administering last dose 1 hr before glucose load by OGTT test; assay type: functional; design: scale not given: the % may be the effect or the level left
Rattus norvegicus [3] = species on record: Rattus norvegicus; test: Reduction in oxidation rate in rat liver mitochondria treated at 0.05% or 0.2% dose through food-admix for 12 weeks; assay type: functional, organism-based; design: scale not given: the % may be the effect or the level left
Rattus norvegicus [4] = test: Reduction in total cholesterol level in fasted Sprague-Dawley rat at 8 to 300 umol/kg, po measured 24 hrs post dose; assay type: functional; design: scale not given: the % may be the effect or the level left
Homo sapiens [5] = species on record: Homo sapiens; test: Inhibition of carnitine palmitoyltransferase in human fibroblasts assessed as [14]CO2 production from [1-14C]pyruvate at 5 to 50 uM by radiometric assay; design: scale not given: the % may be the effect or the level left
Homo sapiens [6] = species on record: Homo sapiens; test: Inhibition of carnitine palmitoyltransferase in human fibroblasts assessed as [14]CO2 production at 5 to 50 uM from [U-14C]palmitate by radiometric assay; design: scale not given: the % may be the effect or the level left
[7] = Inhibition of carnitine palmitoyltransferase in hepatocytes from fasted rat assessed as oxidation of [U-14C]palmitate and production of acetoacetate and BHB; assay type: cell-based; conditions: Hepatocyte
Rattus norvegicus [8] = test: Reduction in blood KB level in fasted Sprague-Dawley rat at 8 to 300 umol/kg, po; assay type: functional; design: scale not given: the % may be the effect or the level left
Rattus norvegicus [9] = test: Increase in plasma FFAs level in fasted Sprague-Dawley rat at 8 to 300 umol/kg, po measured 2 to 4 hrs post dose; assay type: functional
Rattus norvegicus [10] = test: Reduction in blood glucose in fasted Sprague-Dawley rat at 0.6 to 60 umol/kg, po; assay type: functional; design: scale not given: the % may be the effect or the level left
Rattus norvegicus [11] = test: Reduction in blood glucose in adrenalectomized rat at 25 to 150 umol/kg, po; assay type: functional; design: scale not given: the % may be the effect or the level left
Rattus norvegicus [12] = test: Inhibition of CPT1 in Sprague-Dawley rat liver mitochondria at 0.6 to 60 umol/kg, po measured 4 hrs post dose; assay type: functional
Rattus norvegicus [13] = test: Reduction in blood KB in Sprague-Dawley rat at 0.6 to 60 umol/kg, po; assay type: functional; design: scale not given: the % may be the effect or the level left
[14] = Inhibition of rat FAO
Rattus norvegicus [15] = test: Reduction in blood glucose in Sprague-Dawley rat at 600 umol/kg, po; assay type: functional; design: scale not given: the % may be the effect or the level left
Rattus norvegicus [16] = species on record: Rattus norvegicus; test: Reduction in oxidation rate in rat liver mitochondria treated at 0.05% or 0.2% dose through food-admix for 12 weeks by polarographic oxygen uptake method; assay type: functional, organism-based; design: scale not given: the % may be the effect or the level left
Rattus norvegicus [17] = test: Increase in coronary flow in perfused rat heart at 5 mg/kg, sc administered as single dose administered 120 mins before start of perfusion; assay type: functional; conditions: route subcutaneous
Homo sapiens [18] = species on record: Homo sapiens; test: Inhibition of carnitine palmitoyltransferase in human fibroblasts assessed as [14]CO2 production from [U-14C]glucose at 5 to 50 uM by radiometric assay; design: scale not given: the % may be the effect or the level left
Rattus norvegicus [19] = test: Reduction in blood KB in fasted Sprague-Dawley rat at 0.6 to 60 umol/kg, po; assay type: functional; design: scale not given: the % may be the effect or the level left
Rattus norvegicus [20] = test: Reduction in blood glucose in fasted Sprague-Dawley rat at 8 to 300 umol/kg, po measured 2 hrs post dose; assay type: functional; design: scale not given: the % may be the effect or the level left
Rattus norvegicus [21] = test: Reduction in blood glucose in po dosed Sprague-Dawley rat; assay type: functional
Cavia porcellus = test: Reduction in blood glucose in SPF-white inbred guinea pig at 7 to 56 umol/kg, po; assay type: functional
Rattus norvegicus [22] = test: Increase in plasma TG level in fasted Sprague-Dawley rat at 8 to 300 umol/kg, po measured 2 to 4 hrs post dose; assay type: functional
Rattus norvegicus [23] = test: Reduction in blood glucose in po dosed fasted Sprague-Dawley rat; assay type: functional
[24] = Toxicity in po dosed Sprague-Dawley rat assessed as hypoglycemic coma; assay type: organism-based; conditions: in vivo
Sus scrofa = test: Reduction in blood glucose in STZ-treated diabetic pig at 10 to 40 umol/kg, iv measured 6 hrs post dose; assay type: functional; design: scale not given: the % may be the effect or the level left
Rattus norvegicus [25] = test: Inhibition of CPT1 in fasted Sprague-Dawley rat liver mitochondria at 0.6 to 60 umol/kg, po measured 4 hrs post dose; assay type: functional
[26] = Inhibition of human FAO

O=C([O-])C1(CCCCCc2ccc(Cl)cc2)CO1.[Na+] (racemic)
Activity (Mus musculus [1]): 60%
Activity (Mus musculus [2]): 50%
Activity (Rattus norvegicus [3]): < 80%
Activity (Rattus norvegicus [4]): 43%
Activity (Homo sapiens [5]): 24%
Activity (Homo sapiens [6]): 90%
IC50 [7]: 5 µM
Activity (Rattus norvegicus [8]): <=75%
Activity (Rattus norvegicus [9]): 300%
Activity (Rattus norvegicus [10]): <=25%
Activity (Rattus norvegicus [11]): 34%
inhibition (INH) (Rattus norvegicus [12]): 99%
Activity (Rattus norvegicus [13]): <=40%
IC50 [14]: 95.9 µM
Activity (Rattus norvegicus [15]): 80%
Activity (Rattus norvegicus [16]): < 50%
Activity (Rattus norvegicus [17]): 50%
Activity (Homo sapiens [18]): 250%
Activity (Rattus norvegicus [19]): 78%
Activity (Rattus norvegicus [20]): <=50%
ED50 (Rattus norvegicus [21]): 9 mg/kg
ED50 (Cavia porcellus): 8.7 mg/kg
Activity (Rattus norvegicus [22]): <=290%
ED50 (Rattus norvegicus [23]): 8.7 mg/kg
LD50 [24]: 486 mg/kg
Activity (Sus scrofa): <=35%
inhibition (INH) (Rattus norvegicus [25]): <=98%
IC50 [26]: 10.4 µM
